What was measured:
[1] = tested on: IL-12 induced Th1 differentiation; experiment: IL-12 dependent in vitro T-helper cell (Th1) differentiation assay; assay type: cell-based; conditions: 168 h, inhibition of IL-12 induced Th1 differentiation as defined by IFN-γ production upon secondary stimulation with anti-CD3 alone, splenic T cells, anti-CD3 and 5 U/ml IL-12, seven days
Method: This example illustrates the inventive compounds' ability to suppress Th1 differentiation in vitro by blocking IL-12 signaling. Each of compounds [A through Y] were tested in an IL-12 dependent in vitro T-helper cell differentiation assay as described in LeGross et al., J. Exp. Med., 172:921-929 (1990). Recombinant IL-12 was used to induce Th1 differentiation. Splenic T cells were purified utilizing the antibodies RA3-3A1/6.1 (anti-B220), J11d and MAR18.5 (anti-rat kappa chain) to deplete the B cells by magnetic bead separation, as described in Coon et al, J. Immuno., 163:6567-6574 (1989). Splenic T cells were stimulated at 5×10^5/ml with insoluble anti-CD3 alone (145-2C11, Pharmingen, San Diego, Calif.), or anti-CD3 and 5 U/ml IL-12, with and without each inventive compound. After seven days, equal numbers of viable cells were restimulated for 24 hours with anti-CD3 without the inventive compounds, and the supernatants were collected and assayed for IFN-γ production. IFN-γ and IL-4 levels were measured by ELISA test specific for IFN-γ and IL-4.
Th1 differentiation was induced by culturing anti-CD3 stimulated T cells in the presence of exogenous IL-12. […] It was observed that the presence of the tested compounds during T cell activation inhibited Th1 differentiation, which had been enhanced by the addition of exogenous IL-12. The values in the “IC50 μM” column were determined by measuring the inhibition of IL-12 induced Th1 differentiation as defined by IFN-γ production upon secondary stimulation with anti-CD3 alone. None of the compounds affected the viability or recovery of T cells after one week of culture

[2] = tested on: IL-4 induced T2 differentiation; experiment: T2 differentiation assay (T0 cells stimulated in the presence of IL-4); assay type: cell-based; conditions: for IC50: T0 cells stimulated in the presence of IL-4, IL-4 secretion as readout; for IL-4 production of resulting effector cells / activation and proliferation of resulting effector cells: T0 cells stimulated in the presence of IL-4 and compound
Method: (R)-7,8-Dihydro-3-(5-hydroxyhexyl)-1-methyl-1H-imidazo[2,1-f]-purine-2,4(3H,6H)-dione (CT-13430) (see Example 1) and (R)-3-(5-Hydroxyhexyl)-1-methyl-6,7,8,9-tetrahydro-pyrimido[2,1-f]purine-2,4(1H,3H)-dione (CT-13431) (see Example 4) were tested to determine their ability to block the differentiation of T0 cells to T2 effectors as judged by their relative inability to secrete the canonical T2 effector cytokine, IL-4, following treatment with the compounds. In a series of experiments analogous to the T1 differentiation assay of Example 10 (in which T0 cells were induced to become T1 effectors by polyclonal stimulation in the presence of IL-12), the above compounds were effective in a T2 differentiation assay in which T0 cells are stimulated in the presence of IL-4, which affects T2 differentiation.

Row | Compound | IC50 [1] [µM] | IC50 [2] [µM] | IL-4 production of resulting effector cells [2] | activation and proliferation of resulting effector cells [2]
1 | C[C@@H](O)CCCCn1c(=O)c2c(nc3n2CCS3)n(C)c1=O [compound 13421, (R)-6,7-Dihydro-3-(5-hydroxyhexyl)-1-methyl-thiazolo[2,3-f]purine-2,4 (1H,3H)-dione] | 33 | – | – | –
2 | C[C@@H](O)CCCCn1c(=O)c2c(nc3n2CCN3)n(C)c1=O [compound 13430, (R)-7,8-Dihydro-3-(5-hydroxyhexyl)-1-methyl-1H-imidazo[2,1-f]-purine-2,4(3H,6H)-dione] | 17 | 14 | deficient in IL-4 production | proliferated normally
3 | C[C@@H](O)CCCCn1c(=O)c2c(nc3n2CCCN3)n(C)c1=O [compound 13431, (R)-3-(5-Hydroxyhexyl)-1-methyl-6,7,8,9-tetrahydro-pyrimido[2,1-f]purine-2,4(1H,3H)-dione] | 11 | 13 | deficient in IL-4 production | proliferated normally
4 | C[C@@H](O)CCCCn1c(=O)c2c(nc3n2CCNC3)n(C)c1=O [compound 30099, (R)-3-(5-hydroxyhexyl)-1-methyl-6,7,8,9-tetrahydro-pyrazino[2,1-f]purine-2,4(1H,3H)-dione] | 22 | – | – | –
5 | C[C@@H](C#N)CCCCn1c(=O)c2c(nc3n2CCCN3)n(C)c1=O [compound 30146, (R)-3-(5-cyanohexyl)-1-methyl-6,7,8,9-tetrahydro-pyrimido[2,1-f]purine-2,4(1H,3H)-dione] | 14 | – | – | –
6 | C[C@@H](C#N)CCCCn1c(=O)c2c(nc3n2CCN3)n(C)c1=O [compound 30255, (R)-3-(5-Cyanohexyl)-7,8-dihydro-1-methyl-1H-imidazo[2,1-f]-purine-2,4(3H,6H)-dione] | 16 | – | – | –
7 | CC(=O)N1CCn2c1nc1c2c(=O)n(CCCC[C@H](C)O)c(=O)n1C [compound 30256] | 24 | – | – | –
8 | CC(=O)N1CCn2c1nc1c2c(=O)n(CCCC[C@@H](C)N)c(=O)n1C [compound 30259] | 15 | – | – | –
9 | CC(=O)N1CCn2c1nc1c2c(=O)n(CCCC[C@@H](C)O)c(=O)n1C [compound 30260, (R)-3-(5-Hydroxyhexyl)-1-methyl-6,7-dihydro-2,4-dioxo-8-N-acetyl-1H-imidazo[2,1-f]-purine] | 9 | – | – | –
10 | C[C@@H](CCCCn1c(=O)c2c(nc3n2CCCN3C)n(C)c1=O)N(C)C [compound 30262] | 34 | – | – | –
11 | C[C@H](N)CCCCn1c(=O)c2c(nc3n2CCCN3)n(C)c1=O [compound 30263] | 90 | – | – | –
12 | C[C@@H](CCCCn1c(=O)c2c(nc3n2CCCN3)n(C)c1=O)N(C)C [compound 30264] | 39 | – | – | –
13 | C[C@H](CCCCn1c(=O)c2c(nc3n2CCCN3)n(C)c1=O)N(C)C [compound 30267] | 34 | – | – | –
14 | C[C@@H](O)CCCCn1c(=O)c2nc3n(c2n(C)c1=O)CCN3 [compound 30268, (R)-3-(5-hydroxyhexyl)-1-methyl-1,6,7,8-tetrahydro-2H-imidazo[1,2-e]-purine-2,4(3H)-dione] | 20 | – | – | –
15 | C[C@H](O)CCCCn1c(=O)c2c(nc3n2CCCN3)n(C)c1=O [compound 30269] | 53 | – | – | –

— US7247630B2, “Uses of tricyclic compounds” (Cell Therapeutics, Inc., priority 2000, dated 2007)
